Experimental data reported in US20220281848A1, “PYRAZOLE-SUBSTITUTED PYRROLIDINONES AS HERBICIDES” (FMC Corporation, priority 2019, published 2022).

Legend:
Format in all cases: in vivo
[1] = tested on: ivy-leaved morning glory (Ipomoea hederacea, IPOHE); experiment: Test A post-emergence, ivy-leaved morning glory; details: after 13 d
Method in brief: (§1)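 Visual damage rating (0 no damage to 100 total damage) was made 13 d after spraying. The spray was 15.625, 62.5 or 250 g/ha in 50:50 acetone/water with 0.5% Tween 20, applied to 8-day-old glasshouse plants kept at 24/16° C, 14 h light and 65% humidity.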

[2] = tested on: velvetleaf (Abutilon theophrasti, ABUTH); experiment: Test A post-emergence, velvetleaf; details: after 13 d
Method in brief: as §1

corn (Zea mays, ZEAMX) = experiment: Test A pre-emergence, corn; details: after 13 d
Method in brief: (§2)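 Values are percent plant damage 13 d after a pre-emergence spray (15.625, 62.5 or 250 g/ha; acetone/water with 0.5% Tween 20) applied to pots one day post-sowing, under glasshouse conditions of 24/16° C. and twice-daily watering.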

[3] = tested on: redroot pigweed (Amaranthus retroflexus, AMARE); experiment: Test A post-emergence, redroot pigweed; details: after 13 d
Method in brief: as §1

[4] = tested on: barnyardgrass (Echinochloa crus-galli, ECHCG); experiment: Test A post-emergence, barnyardgrass; details: after 13 d
Method in brief: as §1

wheat = experiment: Test D pre-emergence, wheat seed treated with a herbicide safener; details: 100=total damage, 0=no damage
Experimental: A formulation containing 50 g/L of the test chemical was prepared by dissolving the active ingredient in a mixture of organic solvents and emulsifier, details of which are provided in the table. This formulation was then mixed with a small, variable amount of acetone to aid dissolution, before addition of a 0.2% v/v aqueous solution of an adjuvant, as the aqueous diluent, to form an aqueous spray solution which contains a predetermined concentration of the active ingredient.
This aqueous spray solution was then sprayed onto plants including maize and wheat that had been seed treated with a herbicide safener, after one day's cultivation (for pre-emergence) or after about 12 days' cultivation (for post-emergence). The plants were grown from seeds sown in standard soil, placed in a glasshouse under controlled conditions (at 24/18° C. or 20/16° C., day/night; 16 h light; 65% humidity). After spray application the plants were then grown in a glasshouse under the same conditions and watered twice daily. After 15 d for post-emergence and 20 DAA for pre-emergence the test was evaluated (100=total damage to plant; 0=no damage to plant).

[5] = tested on: velvetleaf (Abutilon theophrasti, ABUTH); experiment: Test A pre-emergence, velvetleaf; details: after 13 d
Method in brief: as §2

[6] = tested on: giant foxtail (Setaria faberi, SETFA); experiment: Test A pre-emergence, giant foxtail; details: after 13 d
Method in brief: as §2

Structure (SMILES)	damage to plant (100=total damage; 0=no damage) IPOHE ([1]; Post-Emergence at 15.625 g/ha)	damage to plant (100=total damage; 0=no damage) IPOHE ([1]; Post-Emergence at 62.5 g/ha)	damage to plant (100=total damage; 0=no damage) IPOHE ([1]; Post-Emergence at 250 g/ha)	damage to plant (100=total damage; 0=no damage) ABUTH ([2]; Post-Emergence at 15.625 g/ha)	damage to plant (100=total damage; 0=no damage) ABUTH ([2]; Post-Emergence at 62.5 g/ha)	damage to plant (100=total damage; 0=no damage) ABUTH ([2]; Post-Emergence at 250 g/ha)	damage to plant (100=total damage; 0=no damage) ZEAMX (corn (Zea mays, ZEAMX); Pre-Emergence at 15.625 g/ha)	damage to plant (100=total damage; 0=no damage) ZEAMX (corn (Zea mays, ZEAMX); Pre-Emergence at 62.5 g/ha)	damage to plant (100=total damage; 0=no damage) ZEAMX (corn (Zea mays, ZEAMX); Pre-Emergence at 250 g/ha)	damage to plant (100=total damage; 0=no damage) AMARE ([3]; Post-Emergence at 15.625 g/ha)	damage to plant (100=total damage; 0=no damage) AMARE ([3]; Post-Emergence at 62.5 g/ha)	damage to plant (100=total damage; 0=no damage) AMARE ([3]; Post-Emergence at 250 g/ha)	damage to plant (100=total damage; 0=no damage) ECHCG ([4]; Post-Emergence at 15.625 g/ha)	damage to plant (100=total damage; 0=no damage) ECHCG ([4]; Post-Emergence at 62.5 g/ha)	damage to plant (100=total damage; 0=no damage) ECHCG ([4]; Post-Emergence at 250 g/ha)	damage to plant, TRZAW (wheat; rate 60, 20 DAA)	damage to plant, TRZAW (wheat; rate 130, 20 DAA)	damage to plant, TRZAW (wheat; rate 250, 20 DAA)	damage to plant, TRZAW (wheat; rate 500, 20 DAA)	damage to plant (100=total damage; 0=no damage) ABUTH ([5]; Pre-Emergence at 15.625 g/ha)	other results
CN1CC(c2cnn(C)c2C(F)(F)F)C(C(=O)Nc2cccc(F)c2F)C1=O (racemic) [Compound 25]	10	40	40	0	0	0	0	0	20	0	0	0	30	70	80	0	0	0	0	0	damage to plant, TRZAW (wheat; rate 15, 20 DAA): 0; damage to plant, TRZAW (wheat; rate 30, 20 DAA): 0; damage to plant (100=total damage; 0=no damage) ABUTH ([5]; Pre-Emergence at 62.5 g/ha): 10; damage to plant (100=total damage; 0=no damage) ABUTH ([5]; Pre-Emergence at 250 g/ha): 40; damage to plant (100=total damage; 0=no damage) SETFA ([6]; Pre-Emergence at 15.625 g/ha): 80; damage to plant (100=total damage; 0=no damage) SETFA ([6]; Pre-Emergence at 62.5 g/ha): 90; damage to plant (100=total damage; 0=no damage) SETFA ([6]; Pre-Emergence at 250 g/ha): 100
CN1CC(c2cc(C(F)(F)F)n(C)n2)C(C(=O)Nc2ccccc2F)C1=O (racemic) [Compound 9]	10	0	0	0	0	0	50	0	20	0	0	0	60	90	90	0	0	0	0	0	damage to plant, TRZAW (wheat; rate 15, 20 DAA): 0; damage to plant, TRZAW (wheat; rate 30, 20 DAA): 0; damage to plant (100=total damage; 0=no damage) ABUTH ([5]; Pre-Emergence at 62.5 g/ha): 0; damage to plant (100=total damage; 0=no damage) ABUTH ([5]; Pre-Emergence at 250 g/ha): 0; damage to plant (100=total damage; 0=no damage) SETFA ([6]; Pre-Emergence at 15.625 g/ha): 70; damage to plant (100=total damage; 0=no damage) SETFA ([6]; Pre-Emergence at 62.5 g/ha): 90; damage to plant (100=total damage; 0=no damage) SETFA ([6]; Pre-Emergence at 250 g/ha): 90
CN1CC(c2cc(Cl)n(C)n2)C(C(=O)Nc2ccc(F)c(F)c2F)C1=O (racemic) [Compound 31]	20	30	40	0	0	0	0	10	20	0	10	20	50	80	80	0	0	0	0	0	TRZAW damage rating (wheat; Rates 15, 20 DAA): 0; TRZAW damage rating (wheat; Rates 30, 20 DAA): 0; damage to plant (100=total damage; 0=no damage) ABUTH ([5]; Pre-Emergence at 62.5 g/ha): 0; damage to plant (100=total damage; 0=no damage) ABUTH ([5]; Pre-Emergence at 250 g/ha): 0; damage to plant (100=total damage; 0=no damage) SETFA ([6]; Pre-Emergence at 15.625 g/ha): 40; damage to plant (100=total damage; 0=no damage) SETFA ([6]; Pre-Emergence at 62.5 g/ha): 80; damage to plant (100=total damage; 0=no damage) SETFA ([6]; Pre-Emergence at 250 g/ha): 80
